Test results: patent US10253052B2, “HBED-bisphosphonates, radiometal conjugates and their use as theranostic agents” (Five Eleven Pharma Inc., priority 2015, dated 2019)
“And” between values parts separate entries of the source, which are not always exact repeats. Equal entries are not always repeated.

Assays:
[1] = Micro-PET imaging in normal mice; format: in vivo, normal CD-1 male mice; conditions: 15 min scan at 60 min post-injection
Experimental: [^68Ga]1a, [^68Ga]BPAMD and [^18F]NaF were tested in normal CD-1 male mice. [^68Ga]1g was tested in PSMA expressing LNCaP tumor bearing nude mice. Mice received 300-500 uCi radiotracer through a tail vein injection. PET imaging was performed under isoflurane anaesthesia (2% isoflurane, 1.5 L/min oxygen). The microPET imaging was performed with a small animal PET (Mosaic by Phillips, USA). During PET measurements, the animals were placed in the prone position. At 60 min post injection of the radiotracer, data acquisition was performed for 15 min.

[2] = In vitro binding to hydroxyapatite; conditions: 20 mg hydroxyapatite in saline, 10 min at room temperature
How it was run: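 Hydroxyapatite was pre-incubated 24 h in isotonic saline, then ^68Ga-labelled compound (1 μCi) was added and incubated 10 min at room temperature. After centrifugation and two saline washes, gamma counting of supernatants and solid gave percent ^68Ga bound to hydroxyapatite.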

[3] = In vivo biodistribution in mice; set-up: species or system normal CD-1 male mice; conditions: for bone to blood ratio / bone to muscle ratio / Biodistribution: Blood / Biodistribution: Bone / Biodistribution: Brain / Biodistribution: Heart / Biodistribution: Kidney / Biodistribution: Liver / Biodistribution: Lung / Biodistribution: Muscle / Biodistribution: Pancreas / Biodistribution: Skin / Biodistribution: Spleen: iv; for Biodistribution result in words (organ uptake, retention, excretion): normal mice after iv injection
How it was run: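 Normal male CD-1 mice (25-30 g) received 20-30 μCi of ^68Ga-labelled tracer or [^18F]NaF intravenously and were sacrificed at 2, 30, 60 and 120 min. Harvested organs, with tibia and femur as bone, were weighed and gamma-counted; uptake is expressed as % ID/g wet tissue.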

## O=C(O)CN1CCN(CC(=O)O)CCN(CC(=O)NC(P(=O)(O)O)P(=O)(O)O)CCN(CC(=O)O)CC1.[68Ga] [[^68Ga]BPAMD, reference compound]
[1]
  Micro-PET localization (in words): localized in the spines of mice
[2]
  Hydroxyapatite Binding (%): 90.6 ± 6.0%
[3]; 2 min
  bone to blood ratio: 0.8
  bone to muscle ratio: 4.3
[3]; 2 min post injection
  Biodistribution: Blood: 9.45 ± 0.55 % dose/g
  Biodistribution: Bone: 7.07 ± 0.94 % dose/g
  Biodistribution: Brain: 0.26 ± 0.01 % dose/g
  Biodistribution: Heart: 2.74 ± 0.23 % dose/g
  Biodistribution: Kidney: 22.1 ± 8.80 % dose/g
  Biodistribution: Liver: 1.92 ± 0.31 % dose/g
  Biodistribution: Lung: 4.58 ± 0.36 % dose/g
  Biodistribution: Muscle: 1.63 ± 0.35 % dose/g
  Biodistribution: Pancreas: 1.73 ± 0.11 % dose/g
  Biodistribution: Skin: 2.57 ± 0.53 % dose/g
  Biodistribution: Spleen: 1.90 ± 0.14 % dose/g
[3]; 30 min
  bone to blood ratio: 10
  bone to muscle ratio: 19
[3]; 30 min (0.5 hr) post injection
  Biodistribution: Blood: 1.02 ± 0.19 % dose/g
  Biodistribution: Bone: 10.5 ± 0.6 % dose/g
  Biodistribution: Brain: 0.06 ± 0.02 % dose/g
  Biodistribution: Heart: 0.29 ± 0.02 % dose/g
  Biodistribution: Kidney: 1.46 ± 0.19 % dose/g
  Biodistribution: Liver: 0.22 ± 0.02 % dose/g
  Biodistribution: Lung: 0.50 ± 0.16 % dose/g
  Biodistribution: Muscle: 0.55 ± 0.11 % dose/g
  Biodistribution: Pancreas: 0.27 ± 0.14 % dose/g
  Biodistribution: Skin: 0.39 ± 0.15 % dose/g
  Biodistribution: Spleen: 0.22 ± 0.14 % dose/g
[3]; 60 min
  bone to blood ratio: 10
  bone to muscle ratio: 30
[3]; 60 min (1 hr) post injection
  Biodistribution: Blood: 0.93 ± 0.06 % dose/g
  Biodistribution: Bone: 9.21 ± 0.90 % dose/g
  Biodistribution: Brain: 0.04 ± 0.00 % dose/g
  Biodistribution: Heart: 0.37 ± 0.06 % dose/g
  Biodistribution: Kidney: 2.88 ± 1.51 % dose/g
  Biodistribution: Liver: 0.25 ± 0.03 % dose/g
  Biodistribution: Lung: 0.51 ± 0.09 % dose/g
  Biodistribution: Muscle: 0.31 ± 0.04 % dose/g
  Biodistribution: Pancreas: 0.30 ± 0.02 % dose/g
  Biodistribution: Skin: 0.60 ± 0.08 % dose/g
  Biodistribution: Spleen: 0.21 ± 0.02 % dose/g
[3]; 120 min
  bone to blood ratio: 11
  bone to muscle ratio: 33
[3]; 120 min post injection
  Biodistribution: Blood: 0.90 ± 0.41 % dose/g
  Biodistribution: Bone: 9.62 ± 0.71 % dose/g
  Biodistribution: Brain: 0.03 ± 0.01 % dose/g
  Biodistribution: Heart: 0.26 ± 0.07 % dose/g
  Biodistribution: Kidney: 1.09 ± 0.26 % dose/g
  Biodistribution: Liver: 0.31 ± 0.11 % dose/g
  Biodistribution: Lung: 0.45 ± 0.10 % dose/g
  Biodistribution: Muscle: 0.29 ± 0.06 % dose/g
  Biodistribution: Pancreas: 0.33 ± 0.07 % dose/g
  Biodistribution: Skin: 0.55 ± 0.04 % dose/g
  Biodistribution: Spleen: 0.25 ± 0.08 % dose/g
[3]
  Biodistribution result in words (organ uptake, retention, excretion): less bone uptake and retention

## O=C([O-])CN(CCN(CC(=O)[O-])Cc1cc(CCC(=O)NC(P(=O)(O)O)P(=O)(O)O)ccc1[O-])Cc1cc(CCC(=O)NCCNC(=O)CN2CCN(CC(=O)O)CCN(CC(=O)O)CCN(CC(=O)O)CC2)ccc1[O-].[68Ga+3] [[^68Ga]1h]
[2]
  Hydroxyapatite Binding (%): 96.7 ± 0.9%
[3]; 2 min
  bone to blood ratio: 0.9
  bone to muscle ratio: 4.3
[3]; 2 min post injection
  Biodistribution: Blood: 9.69 ± 1.49 % dose/g
  Biodistribution: Bone: 8.31 ± 0.84 % dose/g
  Biodistribution: Brain: 0.24 ± 0.03 % dose/g
  Biodistribution: Heart: 3.10 ± 0.35 % dose/g
  Biodistribution: Kidney: 18.2 ± 1.65 % dose/g
  Biodistribution: Liver: 1.99 ± 0.29 % dose/g
  Biodistribution: Lung: 4.35 ± 0.52 % dose/g
  Biodistribution: Muscle: 1.92 ± 0.14 % dose/g
  Biodistribution: Pancreas: 1.48 ± 0.27 % dose/g
  Biodistribution: Skin: 2.31 ± 0.25 % dose/g
  Biodistribution: Spleen: 1.91 ± 0.48 % dose/g
[3]; 30 min
  bone to blood ratio: 27
  bone to muscle ratio: 85
[3]; 30 min (0.5 hr) post injection
  Biodistribution: Blood: 0.45 ± 0.07 % dose/g
  Biodistribution: Bone: 12.1 ± 0.84 % dose/g
  Biodistribution: Brain: 0.02 ± 0.01 % dose/g
  Biodistribution: Heart: 0.24 ± 0.12 % dose/g
  Biodistribution: Kidney: 2.07 ± 0.62 % dose/g
  Biodistribution: Liver: 0.15 ± 0.05 % dose/g
  Biodistribution: Lung: 0.31 ± 0.05 % dose/g
  Biodistribution: Muscle: 0.14 ± 0.04 % dose/g
  Biodistribution: Pancreas: 0.09 ± 0.03 % dose/g
  Biodistribution: Skin: 0.39 ± 0.13 % dose/g
  Biodistribution: Spleen: 0.13 ± 0.03 % dose/g
[3]; 60 min
  bone to blood ratio: 112
  bone to muscle ratio: 233
[3]; 60 min (1 hr) post injection
  Biodistribution: Blood: 0.11 ± 0.05 % dose/g
  Biodistribution: Bone: 11.9±1.3 % dose/g and 11.9 ± 1.31 % dose/g
  Biodistribution: Brain: 0.01 ± 0.00 % dose/g
  Biodistribution: Heart: 0.08 ± 0.01 % dose/g
  Biodistribution: Kidney: 1.13 ± 0.08 % dose/g
  Biodistribution: Liver: 0.07 ± 0.01 % dose/g
  Biodistribution: Lung: 0.14 ± 0.03 % dose/g
  Biodistribution: Muscle: 0.05 ± 0.01 % dose/g
  Biodistribution: Pancreas: 0.05 ± 0.02 % dose/g
  Biodistribution: Skin: 0.11 ± 0.02 % dose/g
  Biodistribution: Spleen: 0.07 ± 0.01 % dose/g
[3]; 120 min
  bone to blood ratio: 305
  bone to muscle ratio: 383
[3]; 120 min post injection
  Biodistribution: Blood: 0.04 ± 0.01 % dose/g
  Biodistribution: Bone: 12.0 ± 0.82 % dose/g
  Biodistribution: Brain: 0.01 ± 0.01 % dose/g
  Biodistribution: Heart: 0.05 ± 0.01 % dose/g
  Biodistribution: Kidney: 1.67 ± 0.54 % dose/g
  Biodistribution: Liver: 0.09 ± 0.04 % dose/g
  Biodistribution: Lung: 0.10 ± 0.01 % dose/g
  Biodistribution: Muscle: 0.03 ± 0.00 % dose/g
  Biodistribution: Pancreas: 0.04 ± 0.01 % dose/g
  Biodistribution: Skin: 0.07 ± 0.01 % dose/g
  Biodistribution: Spleen: 0.07 ± 0.01 % dose/g
[3]
  Biodistribution result in words (organ uptake, retention, excretion): excellent bone uptake and fast kidney excretion
